Measurements from article PMC9304066, “H2S biogenesis by cystathionine beta-synthase: mechanism of inhibition by aminooxyacetic acid and unexpected role of serine” (Cellular and Molecular Life Sciences: CMLS, 2022).

Key:
[1] = molecular target: T1, tScCBS (Saccharomyces cerevisiae, UniProt P32582); experiment: CBL-LDH coupled-coupled CBS assay, tScCBS; format: biochemical
T1 construct: 6xHis (C); made in house
T1 sequence (P32582 1-345): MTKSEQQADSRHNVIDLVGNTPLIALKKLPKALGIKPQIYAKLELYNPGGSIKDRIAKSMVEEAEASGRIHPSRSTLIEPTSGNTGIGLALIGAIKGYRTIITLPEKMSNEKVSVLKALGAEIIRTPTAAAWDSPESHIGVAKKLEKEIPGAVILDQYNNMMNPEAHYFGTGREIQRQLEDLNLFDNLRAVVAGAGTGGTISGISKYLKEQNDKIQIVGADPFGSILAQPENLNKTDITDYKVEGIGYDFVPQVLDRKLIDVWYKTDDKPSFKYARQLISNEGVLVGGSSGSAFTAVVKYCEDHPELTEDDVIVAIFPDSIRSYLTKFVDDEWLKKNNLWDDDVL
Method: CBS coupled-coupled assay. CBS canonical activity utilizing Ser and Hcy was determined using cystathionine beta-lyase (CBL) and lactate-dehydrogenase (LDH) coupled-coupled assay as described previously with a few modifications. Native L-LDH from rabbit muscle was purchased from Sigma (catalog no. L2500) and recombinant CBL was purchased from Creative Enzymes (catalog no. NATE-1146). In a final volume of 150 µL, the reaction mixture contained 50 mM Tris–HCl pH 8.9, 20 µM PLP, 500 µM NADH, 1.3 µM LDH, 0.1 µM CBL, 0–20 mM Ser (or 0–50 mM Cys) and 500 ng of tScCBS or HsCBS. Assays with HsCBS were carried out in the absence or presence of 500 µM CBS allosteric activator S-adenosylmethionine (SAM). The reaction was triggered by the addition of 2 mM Hcy and the oxidation of NADH to NAD^+ was followed by monitoring the decrease in absorbance at 340 nm over time (ε340 = 6220 M^−1.cm^−1). […] All measurements were performed in triplicates using Tecan Infinite 200 PRO microplate reader. Kinetic data were analyzed using GraphPad Prism software.

[2] = tested on: human skin fibroblasts; parameters: method as in PMID 31481613; details: cited from earlier work
[3] = tested on: colon cancer cells; parameters: method as in PMID 23836652, PMID 27521834, PMID 27257787; details: transformed cells like colon cancer cells; cited from earlier work
[4] = tested on: human recombinant CSE; parameters: method as in PMID 23488457; details: in vitro; cited from earlier work
[5] = molecular target: T1, tScCBS; experiment: Fluorescence emission titration of tScCBS (PLP excitation at 410 nm); format: binding; details: tScCBS 1 mg/mL, pH 8.5; decrease in emission at 520 nm, excitation 410 nm; read-out: Dissociation constant Kd (fluorescence)
Method: CBS enzymes. Recombinant truncated Saccharomyces cerevisiae CBS lacking the C-terminal regulatory domain (residues 346–507) and carrying the C-terminal 6xHis tag (tScCBS) was prepared as described previously. Engineered recombinant Homo sapiens CBS lacking a loop protruding from the central β-strand of the CBS2 domain corresponding to the residues 516–525 (HsCBS; described in detail in [21]) was purchased from GenScript.
UV − Vis and fluorescence spectroscopy. Absorption spectra were collected on a Tecan Infinite M200 Pro spectrophotometer in a buffer containing 50 mM Tris–HCl pH 8.5, 20 mM NaCl and 0.5 mM tris(2-carboxyethyl)phosphine (TCEP). All the spectra were carried out with a protein concentration of 1 mg/mL with a 1 cm path-length quartz cuvette in a total volume of 150 µL. tScCBS was titrated directly in a cuvette by successive additions of different concentrations of AOAA, Ser and Cys, respectively, and spectra were recorded between 240 and 600 nm after an incubation time of 3 min at RT. Fluorescence emission spectra were collected under the same conditions upon PLP excitation at 410 nm. Blank spectra were subtracted from sample spectra.

[6] = tested on: HEK293 cells; experiment: Cell viability (MTT); format: cell-based, human; details: Ser 0.15–10 mM
Method: (§1) Cell culture. The human embryonic kidney cell line HEK293 (ATCC CRL-1573) was cultured in Dulbecco’s Modified Eagle Medium (DMEM) containing 4.5 g/L glucose. The culture medium was supplemented with 10% (v/v) heat-inactivated fetal bovine serum, 2 mM Glutamax, non-essential amino acids, 100 U/ml penicillin and 100 μg/ml streptomycin. Cells were grown in a humidified incubator at 37 °C and 5% CO2 atmosphere. Cell viability and proliferation were assessed using MTT and BrdU assay, respectively, essentially as described previously.

[7] = tested on: HEK293 cells; experiment: Cell proliferation (BrdU); format: cell-based, human; details: Ser concentrations above 3 mM, 'up to'
Method: as §1

Row | Structure (SMILES) | Reduction of activity catalyzing condensation of Cys and Hcy yielding H2S ([1]; AOAA-inhibited tScCBS (200 µM AOAA)) | Effect on condensation of Ser and Hcy (canonical reaction) ([1]; tScCBS inhibited by 200 µM AOAA, 5 mM Ser + 2 mM Hcy) | Concentration shutting down CBS-derived H2S biogenesis [2] | Concentrations required to achieve similar level of inhibition of CBS-derived H2S biogenesis [3] | Potency inhibiting human recombinant CSE relative to CBS [4] | Kd [5] | Cell viability [6] | Increase of cellular proliferation [7]
1 | NOCC(=O)O [AOAA, aminooxyacetic acid] | 85% | not impaired | 3 µM | 0.1 to 2 mM | ~ 8 times | – | – | –
2 | N[C@@H](CO)C(=O)O [Ser, serine] | – | – | – | – | – | 39.5 ± 8.26 µM | did not affect | ~ 18%
